Assay results: US20250197837A1, “SERINE PROTEASE FOR SELECTIVELY DEGRADING MUCINS AND USE THEREOF” (priority 2022, published 2025)

Legend:
[1] = molecular target: gel-like mucins from the abdominal cavity of patients with clinical peritoneal pseudomyxoma
[2] = molecular target: mucus from mucinous appendiceal adenocarcinoma (clinical source)
[3] = molecular target: mucus from mucinous ovarian cancer (clinical source)
[4] = test system: mucins after mucus formation; settings: background statement; cited from earlier work
[5] = test system: human patient-derived gel-like mucins; assay: Example 5: in vivo degradation of gel-like mucins embedded in mouse abdominal cavity; parameters: species or system C57 male mice; settings: 80 ug injected 24 h after embedding 0.30 g mucins, sacrificed after 48 h
Experimental: The experiment included twenty C57 male mice aged 6-8 weeks. Five groups were set up in the experiment, including an experimental group (mucus+EatA, 5 mice), a control group (mucus+PBS, 5 mice), a bromelain group (mucus+bromelain, 5 mice), a negative sham operation group (minimal invasive open operation performed without adding mucins and enzyme, 3 mice), and a reference group (minimal invasive open operation performed with adding EatA protease, 2 mice). […] After 48 h, the mice were sacrificed, laparotomy was performed (results of abdominal examination after laparotomy were shown in FIG. 9) and the whole amount of gel-like mucins in the mice were removed, weighed using the method described in Example 2, counted and compared with the final amount of gel-like mucins remaining in three groups (experimental group (mucus+EatA), control group without enzyme (mucus+PBS) and bromelain group (mucus+bromelain)) to which gel-like mucins was added as a substrate, and results were shown in FIG. 8.

[6] = test system: gel-like mucins; assay: Example 2: mass loss of gel-like mucins, EatA versus bromelain; format: biochemical, human; settings: 0.10 g mucins, 500 uL PBS, 37° C., 6 h
Source text: (§1) Since mucins of different origins and mucins associated with the mucus-related disease have different expression patterns and post-translational modifications, different mucins of clinical pathological origin and mixtures thereof are used in the present application. Preferably, mucins of clinical peritoneal pseudomyxoma origin are used. In the present application, firstly, gel-like mucins from the abdominal cavity of patients with clinical peritoneal pseudomyxoma are collected, after protein precipitation with 30% to 100% ammonium sulfate, cells and tissue fragments, adipose tissue that possibly doped in the collection process of mucins are selected and removed, and then dialyzed and filtered through a 100 KDa dialysis bag. Through the use of sulfate detection test paper, the sulfate concentration in the dialysate and the inner side of the dialysis bag is confirmed. When the sulfate concentration is less than 200 mg/L, the dialysis is terminated and gel-like mucins can be seen. This sample is collected and used as the substrate for in vitro tests to examine the degradation ability of serine protease EatA on mucins. Some examples used mucins removed from the abdominal cavity of clinical patients without purification. […]

[7] = test system: miscellaneous protein derived from the patient's abdominal cavity; assay: Example 4: specificity, SDS-PAGE of miscellaneous proteins in homogenized patient mucins; format: biochemical, human; settings: 2-10 ug protease, 100 μL homogenized mucins, 200 uL, 6 h
Experimental: Untreated mucins derived from clinical patients were briefly cleared to remove cellular tissue. 0.20 g of the above-mentioned mucins was accurately weighed and placed in 1 mL of PBS solution, 3-4 magnetic beads with a diameter of 1 mm were added, and then a resulting mixture was frozen and shaken at −30° C. for homogenization, so as to destroy the gel-like morphology of mucins, and release the miscellaneous protein from patients with mixed gel-like mucins. 100 μL of the homogenized mucins solution was added with 2-10 ug of protease (bromelain or serine protease EatA), respectively, and the reaction was performed in a 200 uL reaction system. After 6 h of reaction, samples were respectively taken for SDS-PAGE detection, and the total protein after fragmentation, which was the patient-derived miscellaneous protein in the abdominal cavity/abdominal mucins of the patient, was analyzed.

[8] = Example 5: tolerability in mice after intraperitoneal injection; format: in vivo, C57 male mice; settings: mice injected with enzyme
[9] = test system: gel-like mucins from the abdominal cavity of patients with clinical peritoneal pseudomyxoma; assay: Example 1: degradation of gel-like mucins by EatA, visual/pipette observation; format: biochemical, human; settings: about 80 μg enzyme, 0.30 g mucins, 500 ul, 37° C., 3 h
Source text: as §1

[10] = test system: mucinous ovarian cancer (MOC) mucus; assay: Example 6: viscosity of mucinous ovarian cancer mucus after incubation (rheometer); format: biochemical, human; settings: 50 μg enzyme, 0.50 mL mucus, 750 uL, 37° C., 600 rpm, 20 h; control about 2000 mPa s
Experimental: (§2) This example carried out a degradation experiment on mucus from mucinous ovarian cancer and mucinous appendiceal adenocarcinoma using the serine protease EatA. 0.50 mL of the above-mentioned two new types of mucinous carcinoma mucus from clinical sources were weighed directly into test tubes, 50 μg of EatA serine protease dissolved in 0.25 mL of PBS buffer was added and then incubated in a total 750 uL reaction system at 37° C., 600 rpm for 20 h. For each type of mucinous carcinoma mucus sample, a control group was set up with only the addition of an equal volume of PBS, for a total of four experiments, each set up with three replicates. The viscosity of the incubated experimental samples was measured under an Anton Paar rheometer, probe model pp25, sample spacing 0.45 mm. After each sample was subjected to pre-shearing at a shearing frequency of 5 rad/s for 20 s, a total of 36 sample point data was obtained for each group of experiments by reading a total of 12 data at a shearing frequency of 10 rad/s every 5 s period for 60 s.

[11] = test system: gel-like mucins; assay: Example 3: temperature, pH and time dependence of mucin degradation; format: biochemical, human
Source text: Since mucins of different origins and mucins associated with the mucus-related disease have different expression patterns and post-translational modifications, different mucins of clinical pathological origin and mixtures thereof are used in the present application. Preferably, mucins of clinical peritoneal pseudomyxoma origin are used. In the present application, firstly, gel-like mucins from the abdominal cavity of patients with clinical peritoneal pseudomyxoma are collected, after protein precipitation with 30% to 100% ammonium sulfate, cells and tissue fragments, adipose tissue that possibly doped in the collection process of mucins are selected and removed, and then dialyzed and filtered through a 100 KDa dialysis bag. Through the use of sulfate detection test paper, the sulfate concentration in the dialysate and the inner side of the dialysis bag is confirmed. When the sulfate concentration is less than 200 mg/L, the dialysis is terminated and gel-like mucins can be seen. This sample is collected and used as the substrate for in vitro tests to examine the degradation ability of serine protease EatA on mucins. Some examples used mucins removed from the abdominal cavity of clinical patients without purification.
During the experiment, 0.10 g of gel-like mucins was accurately weighed for each single reaction, 20 μg of aminoprotease EatA was added, the reaction was performed in 500 uL of solution system, and the weighing method for the remaining gel-like mucins was the same as that in Example 2. The control group was performed under the same conditions except that the serine protease EatA was not added, and three reactions were set in each group as statistical replicates. Due to the hydrating nature of gel-like mucins, the gel-like mucins absorbed water and swelled when in solution, resulting in a certain weight increase in the control group when finally weighed.
Among them, the experiment on temperature gradient was conducted in normal saline with pH=7.1, and results were shown in FIG. 4; in the pH experiment, the reaction system used was a solution system with different pH values based on 0.9% normal saline, and the reaction temperature was 37° C., and results are shown in FIG. 5; the reaction time for both the above-mentioned experiments was 6 h.
In the experiment regarding the degradation time, based on the temperature curve and pH curve, the experiment was carried out in PBS buffer with pH=7.2-7.4 at 37° C.

[12] = test system: gelatin, lactoferrin and CD43, BSA and BSM; settings: previous studies; cited from earlier work
[13] = test system: mucinous appendiceal adenocarcinoma (MAA) mucus; assay: Example 6: viscosity and appearance of mucinous appendiceal adenocarcinoma mucus after incubation; format: biochemical, human; settings: 50 μg enzyme, 20 h
Experimental: as §2

[14] = test system: mucus (sputum), mucous colon cancer and the like of patients with chronic obstructive pulmonary pneumonia; assay: Applicant's related studies: degradation of COPD sputum and mucous colon cancer mucus; format: biochemical, human; settings: relevant study results of the applicant

Question: For “serine protease EatA (serine protease EatA-EatAp with only the passenger domain) (enzyme)”, which mass loss of gel-like mucins [1] is on record?
Answer: 90.3%

Question: What about the viscosity of mucus (rheometer) [2] of the same substance?
Answer: 7 mPa s

Question: What about the viscosity of mucus (rheometer) [3] of the same substance?
Answer: 670 mPa s

Question: Which “mucin degradation after mucus formation” value [4] does the source give for elastase here?
Answer: inefficient

Question: Which “amount of gel-like mucins remaining” value [5] does the source give for bromelain [reference compound] here?
Answer: more than 0.30 g

Question: And the “mass loss of gel-like mucins (in words)” value ([6]; increasing enzyme concentration)?
Answer: negative

Question: And the “degradation of patient-derived miscellaneous proteins (SDS-PAGE)” value [7]?
Answer: the miscellaneous protein showed degradation

Question: With pancreatin as the substance, how does the “mucin degradation after mucus formation” value [4] read?
Answer: inefficient

Question: With “serine protease EatA: autotransporter serine protease from enterotoxigenic Escherichia coli H10407; passenger domain SEQ ID NO 2, full length SEQ ID NO 1” as the substance, how does the “survival from the beginning of the experiment” value [8] read?
Answer: more than 100 days

Question: And the “adverse reactions, behavior and body weight” value ([8]; compared with non-injected group)?
Answer: without adverse reactions

Question: What about the “degradation of gel-like mucins (observation)” value [9] of the same substance?
Answer: obvious degradation of gel-like mucins

Question: And the “viscosity of mucus after incubation” value [10]?
Answer: about 670 mPa s

Question: What about the “degradation efficiency of gel-like mucins in vivo” value ([5]; based on initial 0.30 g) of the same substance?
Answer: 78%

Question: What about the “pH of maximum degradation efficiency” value ([11]; 20 μg enzyme, 0.10 g mucins, 0.9% normal saline based, 37° C., 6 h) of the same substance?
Answer: ~8

Question: And the “mass loss of gel-like mucins” value ([11]; 20 μg enzyme, 0.10 g mucins, PBS pH=7.2-7.4, 37° C., 10.5 h)?
Answer: 80%

Question: And the “temperature of maximum enzyme activity” value ([11]; 20 μg enzyme, 0.10 g mucins, normal saline pH=7.1, 6 h)?
Answer: 34-37 °C

Question: And the “optimal working environment: pH” value ([11]; degradation of gel-like mucins)?
Answer: 7-8

Question: What about the “optimal working environment: reaction temperature” value ([11]; degradation of gel-like mucins) of the same substance?
Answer: 34-37 °C

Question: What about the “degradation of common human glycoproteins and non-human proteins” value [12] of the same substance?
Answer: did not degrade

Question: What about the “mass loss of gel-like mucins” value ([6]; 40 μg enzyme, based on initial mass 0.1 g) of the same substance?
Answer: 90.33%

Question: What about the “degradation of patient-derived miscellaneous proteins (SDS-PAGE)” value [7] of the same substance?
Answer: did not degrade these proteins

Question: What about the “viscosity of mucus after incubation” value ([13]; 0.50 mL mucus, 750 uL, 37° C., 600 rpm, control about 1200 mPa s) of the same substance?
Answer: about 7 mPa s

Question: What about the “appearance of mucus sample solution after incubation” value ([13]; after standing) of the same substance?
Answer: becomes uniform

Question: What about the “degradation effect on mucus” value [14] of the same substance?
Answer: certain degradation effect
